Measured values from US20090220435A1, “TIGHT JUNCTION MODULATING PEPTIDE COMPONENTS FOR ENHANCING MUCOSAL DELIVERY OF THERAPEUTIC AGENTS” (priority 2005, published 2009).
Like-named read-outs stand apart in the source and are kept apart here.

Key:
[1] = Drug permeation (Papp) in the in vitro epithelial tissue model; settings: human, pH 5, Papp
From the text: (§1) A. A “kit” of 24 EpiAirway™ units can routinely be employed for evaluating five different formulations, each of which is applied to quadruplicate wells. Each well is employed for determination of permeation kinetics (4 time points), transepithelial electrical resistance (TER). An additional set of wells is employed as controls, which are sham treated during determination of permeation kinetics, but are otherwise handled identically to the test sample-containing units for determinations of transepithelial resistance and viability.
(§2) B. In all experiments, the mucosal delivery formulation to be studied is applied to the apical surface of each unit in a volume of 100 μL, which is sufficient to cover the entire apical surface. An appropriate volume of the test formulation at the concentration applied to the apical surface (no more than 100 μL is generally needed) is set aside for subsequent determination of concentration of the active material by ELISA or other designated assay.
(§3) D. In order to minimize potential sources of error and avoid any formation of concentration gradients, the units are transferred from one 0.9 mL-containing well to another at each time point in the study. These transfers are made at the following time points, based on a zero time at which the 100 μL volume of test material was applied to the apical surface: 15 minutes, 30 minutes, 60 minutes, and 120 minutes.
(§4) F. At the completion of each time point, the medium is removed from the well from which each unit was transferred, and aliquotted into two tubes (one tube receives 700 μL and the other 200 μL) for determination of the concentration of permeated test material and, in the event that the test material is cytotoxic, for release of the cytosolic enzyme, lactate dehydrogenase, from the epithelium. These samples are kept in the refrigerator if the assays are to be conducted within 24 hours, or the samples are subaliquotted and kept frozen at −80° C. until thawed once for assays. Repeated freeze-thaw cycles are to be avoided.
(§5) EIA kit (p/n S-1178(EIAH6101) was purchased from Peninsula Laboratories Inc. (Division of BACHEM, San Carlos, Calif., 800-922-1516). 17×120 mm polypropylene conical tubes (p/n 352097, Falcon, Franklin Lakes, N.J.) were used for all sample preparations. Eight standards were used for PTH quantitation. The rest of the assay procedure was the same as the kit inserts.
(§6) The instant study was designed to evaluate the effect of PN159 itself or in combination with additional permeation enhancers on PTH permeation. The PN159 concentrations evaluated are 25, 50, and 100 μM. The additional permeation enhancers are 45 mg/ml M-β-CD, 1 mg/ml DDPC, and 1 mg/ml EDTA. Sorbitol was used as a tonicifier (146-190 mM) to adjust the osmolarity of formulations to 220 mOsm/kg. The formulation pH was fixed at 4.5. PTH was chosen as a model peptide in this example. 2 mg/ml PTH was combined with PN159 with or without additional permeation enhancers. The combination was tested using an in vitro epithelial tissue model to monitor PTH permeation, transepithelial electrical resistance (TER), and the cytotoxicity of the formulation by LDH assay.
(§7) The concentrations of MC-4RA in the basolateral media was analyzed by the RP-HPLC using a C18 RP chromatography with a flow rate of 1 mL/minute and a column temperature of 25° C. • Solvent A: 0.1% TFA in water; Solvent B: 0.1% TFA in ACN • Injection Volume: 50 μL • Detection: 220 nm • RUN TIME: 15 MIN
(§8) Galantamine concentration in the formulation and in the basolateral media (permeation samples) was determined using an isocratic LC (Waters Alliance) method with UV detection. • Column: Waters Symmetry Shield, C18, 5 um, 25×0.46 cm • Mobile phase: 5% ACN in 50 mM ammonium formate, pH 3.0 • Flow rate: 1 ml/min • Column temperature: 30° C. • Calibration curve: 0-400 μg/ml Galantamine HBr • Detection: UV at 285 nm

[2] = tested on: in vitro epithelial tissue model (EpiAirway™); test: as above
From the text: as §1, §2, §3, §4, §5, §6, §7, §8

[3] = tested on: EpiAirway™ human-derived tracheal/bronchial epithelial cells; test: Transepithelial electrical resistance (TER) across EpiAirway epithelial cell layer; assay type: cell-based
[4] = tested on: EpiAirway™ human-derived tracheal/bronchial epithelial cells; test: Cytotoxicity (LDH assay); assay type: cell-based; settings: for LDH15: 15 minute treatment at the peptide's optimal concentration; for LDH60: 60 minute treatment at the peptide's optimal concentration
Protocol: The amount of cell death was assayed by measuring the loss of lactate dehydrogenase (LDH) from the cells using a CytoTox 96 Cytoxicity Assay Kit (Promega Corp., Madison, Wis.). Fifty microliters of sample was loaded into a 96-well assay plates. Fresh, cell-free culture medium was used as a blank. 50 μl of substrate solution was added to each well and the plates incubated for 30 minutes at room temperature in the dark. Following incubation, 50 μl of stop solution was added to each well and the plates read on an optical density plate reader at 490 nm.
The amount of cell death will be assayed by measuring the loss of lactate dehydrogenase (LDH) from the cells using a CytoTox 96 Cytotoxicity Assay Kit (Promega Corp., Madison, Wis.). Fifty microliters of sample will be loaded into a 96-well assay plates. Fresh, cell-free culture medium will be used as a blank. Fifty microliters of substrate solution will be added to each well and the plates incubated for 30 minutes at room temperature in the dark. Following incubation, 50 μl of stop solution will be added to each well and the plates read on an optical density plate reader at 490 nm. The measurement of LDH release into the basolateral media indicates relative cytotoxicity of the samples. One hundred percent lysis of control inserts with 0.3% Octylphenolpoly(ethyleneglycolether)×(TritonX-100) allows LDH values to be expressed as percentage of total lysis.
In some embodiments, The amount of cell death was assayed by measuring the release of lactate dehydrogenase (LDH) from the cells into the apical medium using a CytoTox 96 Cytotoxicity Assay Kit (Promega Corp., Madison, Wis.). One percent Octylphenolpoly (ethyleneglycolether)×(Triton X-100™) diluted in phosphate buffered saline (PBS) causes 100% lysis in cultured cells and served herein as a positive control for the LDH assay. Following the one hour incubation period with a test formulation (refer to Table 24 of Example 25 for details of test formulations), the total liquid volume of each insert was brought to a final volume of 200 μl with culture medium. The apical medium was then mixed by pipetting four times with a multichannel pipette set to a 100 μl volume. After mixing, a 100 μl sample from the apical side of each insert was transferred to a new 96-well plate. The apical media samples were sealed with a plate sealer and stored at room temperature for same day analysis or stored overnight at 4° C. for analysis the next day. To measure LDH levels, 5 μl of the 100 μl apical media sample was diluted in 45 μl DPBS in a new 96-well plate. Fresh, cell-free culture medium will be used as a blank. Fifty microliters of substrate solution was added to each well and incubated for 30 minutes at room temperature away from direct light. Following the 30 minute incubation, 50 μl of stop solution was added to each well. Optical density (OD) was measured at 490 nm with a uQuant absorbance plate reader from Biotek Instruments. The measurement of LDH release into the apical media indicates relative cytotoxicity of the samples. Percent cytotoxicity for each test formulation was calculated by subtracting the measured absorbance of the PBS control (basal level of LDH release) from the measured absorbance of the individual test formulation and then dividing that value by the measured absorbance for the 1% Triton X-100™ positive control, multiplied by 100.
An LDH assay was used to assess the cytotoxicity of the treatments. The LDH level was determined by CytoTox96 Non-Radioactive Cytotoxic Assay (Promega, Madison, Wis.) following the manufacturer's protocol. For basal-lateral LDH levels, triplicates of 50 ul of the basal medium were used to determine the LDH level. For apical LDH level, 150 ul of the diluted apical sample was removed by adding 150 ul of Epi-CM to the apical chamber, the medium was mixed by pipeting up and down, and 150 ul medium was removed and diluted 2× (for a final 8-fold dilution) for assay in triplicates of 50 ul.

[5] = tested on: EpiAirway™ human-derived tracheal/bronchial epithelial cells; test: TER recovery after peptide treatment; assay type: cell-based; settings: among all TJMPs tested
[6] = [PN159] 0 μM, galantamine 40 mg/mL pH 5.0, calcitonin 1 mg/mL pH 3.5, PTH1-34 1 mg/mL pH 4.5, PYY3-36 1 mg/mL pH 5.0
[7] = [PN159] 25 μM, galantamine 40 mg/mL pH 5.0, calcitonin 1 mg/mL pH 3.5, PTH1-34 1 mg/mL pH 4.5, PYY3-36 1 mg/mL pH 7.0
[8] = [PN159] 100 μM, galantamine 40 mg/mL pH 5.0, calcitonin 1 mg/mL pH 3.5, PTH1-34 1 mg/mL pH 4.5, PYY3-36 1 mg/mL pH 7.0

| Molecule | Papp [2, 6] [×10⁻⁶ cm/s] | TER reduction ([3]; 10 μM peptide) [%] | TER reduction ([3]; 25 μM peptide) [%] | TER reduction ([3]; 100 μM peptide) [%] | LDH15 [4] | LDH60 [4] | TER recovery time [5] | TER reduction ([3]; 500 μM peptide) [%] | further results |
| --- | --- | --- | --- | --- | --- | --- | --- | --- | --- |
| COc1ccc2c3c1O[C@H]1C[C@@H](O)C=C[C@@]31CCN(C)C2 [Galantamine, galantamine] | 2.1 | – | – | – | – | – | – | – | Papp A→B at 120 min, 40 mg/mL [1, 6]: ~2.1 ×10⁻⁶ cm/s; Papp A→B at 120 min, 40 mg/mL [1, 7]: 5.1 ×10⁻⁶ cm/s; Papp A→B at 120 min, 40 mg/mL ([1]; [PN159] 50 μM, galantamine 40 mg/mL pH 5.0, calcitonin 1 mg/mL pH 3.5, PTH1-34 1 mg/mL pH 4.5): 6.2 ×10⁻⁶ cm/s; Papp A→B at 120 min, 40 mg/mL [1, 8]: 7.2 ×10⁻⁶ cm/s; fold increase in Papp in the presence of PN159 ([2]; PN159 25-100 vs drug alone): 2.5-3.5 fold |
| CC[C@H](C)[C@H](NC(=O)[C@H](CCC(=O)O)NC(=O)[C@H](CO)NC(=O)[C@@H](NC(=O)[C@@H](N)CO)C(C)C)C(=O)N[C@@H](CCC(N)=O)C(=O)N[C@@H](CC(C)C)C(=O)N[C@@H](CCSC)C(=O)N[C@@H](Cc1cnc[nH]1)C(=O)N[C@@H](CC(N)=O)C(=O)N[C@@H](CC(C)C)C(=O)NCC(=O)N[C@@H](CCCCN)C(=O)N[C@@H](Cc1cnc[nH]1)C(=O)N[C@@H](CC(C)C)C(=O)N[C@@H](CC(N)=O)C(=O)N[C@@H](CO)C(=O)N[C@@H](CCSC)C(=O)N[C@@H](CCC(=O)O)C(=O)N[C@@H](CCCN=C(N)N)C(=O)N[C@H](C(=O)N[C@@H](CCC(=O)O)C(=O)N[C@@H](Cc1c[nH]c2ccccc12)C(=O)N[C@@H](CC(C)C)C(=O)N[C@@H](CCCN=C(N)N)C(=O)N[C@@H](CCCCN)C(=O)N[C@@H](CCCCN)C(=O)N[C@@H](CC(C)C)C(=O)N[C@@H](CCC(N)=O)C(=O)N[C@@H](CC(=O)O)C(=O)N[C@H](C(=O)N[C@@H](Cc1cnc[nH]1)C(=O)N[C@@H](CC(N)=O)C(=O)N[C@@H](Cc1ccccc1)C(=O)O)C(C)C)C(C)C [PTH1-34, human parathyroid hormone 1-34] | 0.11 | – | – | – | – | – | – | – | fold increase in Papp in the presence of PN159 [2]: 3-5 fold; Papp [2, 7]: 0.34 ×10⁻⁶ cm/s; Papp [2, 8]: 0.43 ×10⁻⁶ cm/s |
| CC[C@H](C)[C@H](NC(=O)[C@H](CCCCN)NC(=O)[C@H](CCCCN)NC(=O)[C@H](C)NC(=O)[C@H](CC(C)C)NC(=O)[C@H](C)NC(=O)[C@H](C)NC(=O)[C@H](CC(C)C)NC(=O)[C@H](C)NC(=O)[C@H](CCCCN)NC(=O)[C@H](CC(C)C)NC(=O)[C@H](CC(N)=O)NC(=O)[C@@H](NC(=O)[C@H](CCCCN)NC(=O)CNC(=O)[C@H](CC(C)C)NC(=O)[C@H](CC(C)C)NC(=O)[C@H](Cc1ccc(O)cc1)NC(=O)CNC(=O)[C@H](C)NC(=O)[C@H](CO)NC(=O)[C@H](CC(N)=O)NC(=O)[C@H](CC(C)C)NC(=O)[C@@H](NC(=O)[C@H](Cc1c[nH]c2ccccc12)NC(=O)CN)[C@@H](C)O)[C@@H](C)CC)C(=O)N[C@@H](CC(C)C)C(N)=O [PN161] | – | 43 | 73 | 84 | 0.0017 | 0.01 | fastest recovery time | – | TER reduction ([3]; 2.5 μM peptide): 11% |
| H-LLETLLKPFQCRICMRNFSTRQARRNHRRRHRR-NH2 (cysteine pairing not given here) [PN202] | – | 3 | – | 95 | 0.0011 | 0.02 | fastest recovery time | 95 | TER reduction ([3]; 50 μM peptide): 57% |
| H-RRRQRRKRGGDIMGEWGNEIFGAIAGFLG-NH2 [PN250] | – | 3 | 17 | 58 | 0.0016 | 0.031 | fastest recovery time | 84 | TER reduction ([3]; 250 μM peptide): 79% |
